ChEMBL document CHEMBL1156689, “Comparison of the cytotoxic activities of naturally occurring hydroxyanthraquinones and hydroxynaphthoquinones” (Eur J Med Chem, 2008)

Experiments:
HCT-116 = assay: Cytotoxicity against MDR1 Pgp under-expressing human HCT116 cells after 24 hrs by MTT assay; assay type: functional, cell-based; settings: HCT-116, 24 h
HepG2 = assay: Cytotoxicity against MDR1 Pgp overexpressing human HepG2 cells after 24 hrs by MTT assay; assay type: functional, cell-based; settings: HepG2, 24 h

SMILES: CCO[C@H](CC=C(C)C)C1=CC(=O)c2c(O)ccc(O)c2C1=O [ETHYLSHIKONIN]
- IC50 (HCT-116): 0.45 µM
- IC50 (HepG2): 0.42 µM

SMILES: CC(C)=CC[C@@H](OC(=O)C(C)C)C1=CC(=O)c2c(O)ccc(O)c2C1=O [ISOBUTYLSHIKONIN]
- IC50 (HCT-116): 0.34 µM
- IC50 (HepG2): 0.22 µM

SMILES: O=C1c2cccc(O)c2C(=O)c2c(O)cc(CO)cc21 [ALOE-EMODIN]
- IC50 (HCT-116): 8.7 µM
- IC50 (HepG2): 10 µM

SMILES: O=C(O)c1cc(O)c2c(c1)[C@H]([C@H]1c3cc(C(=O)O)cc(O)c3C(=O)c3c(O[C@@H]4O[C@H](CO)[C@@H](O)[C@H](O)[C@H]4O)cccc31)c1cccc(O[C@@H]3O[C@H](CO)[C@@H](O)[C@H](O)[C@H]3O)c1C2=O [Sennoside A]
- IC50 (HCT-116): 68.2 µM
- IC50 (HepG2): 51.6 µM

SMILES: COc1cc(O)c2c(c1)C(=O)c1cc(C)cc(O)c1C2=O [PHYSCION]
- IC50 (HCT-116): 19 µM
- IC50 (HepG2): 77.3 µM

SMILES: CCC(=O)Oc1cc(C)cc2c1C(=O)c1c(OC(=O)CC)cc(OC)cc1C2=O
- IC50 (HCT-116): 9.2 µM
- IC50 (HepG2): > 100 µM

SMILES: CC(C)=CC[C@@H](OC(=O)CC(C)(C)O)C1=CC(=O)c2c(O)ccc(O)c2C1=O [BETA-HYDROXYISOVALERYLSHIKONIN]
- IC50 (HCT-116): 0.37 µM
- IC50 (HepG2): 0.59 µM

SMILES: O=C(O)c1cc(O)c2c(c1)C(=O)c1cccc(O)c1C2=O [RHEIN]
- IC50 (HCT-116): 13 µM
- IC50 (HepG2): 12.3 µM

SMILES: CC(=O)O[C@H](CC=C(C)C)C1=CC(=O)c2c(O)ccc(O)c2C1=O [ACETYLSHIKONIN]
- IC50 (HCT-116): 0.45 µM
- IC50 (HepG2): 0.38 µM

SMILES: Cc1cc(O)c2c(c1)C(=O)c1cc(O)cc(O)c1C2=O [EMODIN]
- IC50 (HCT-116): 5.7 µM
- IC50 (HepG2): 5.2 µM

SMILES: CC(C)=CC[C@H](OC(=O)C1OC1C)C1=CC(=O)c2c(O)ccc(O)c2C1=O (some centres undefined)
- IC50 (HCT-116): 0.39 µM
- IC50 (HepG2): 0.34 µM

SMILES: CCC(=O)Oc1cccc2c1C(=O)c1c(OC(=O)CC)cc(C)cc1C2=O
- IC50 (HCT-116): 14.8 µM
- IC50 (HepG2): > 100 µM

SMILES: Cc1cc(O)c2c(c1)C(=O)c1cccc(O)c1C2=O [CHRYSOPHANOL]
- IC50 (HCT-116): 47.4 µM
- IC50 (HepG2): 64.4 µM

SMILES: CC(=O)O[C@@H](CC=C(C)C)C1=CC(=O)c2c(O)ccc(O)c2C1=O [ACETYLALKANNIN]
- IC50 (HCT-116): 0.34 µM
- IC50 (HepG2): 0.39 µM

SMILES: CC(C)=CC[C@@H](O)C1=CC(=O)c2c(O)ccc(O)c2C1=O [SHIKONIN]
- IC50 (HCT-116): 0.23 µM
- IC50 (HepG2): 0.24 µM

SMILES: O=C1c2cc(CO)cc(O)c2C(=O)c2c(O[C@@H]3O[C@H](CO)[C@@H](O)[C@H](O)[C@H]3O)cccc21
- IC50 (HCT-116): 75 µM
- IC50 (HepG2): > 100 µM

SMILES: CC(C)=CC[C@H](OC(=O)C(C)C)C1=CC(=O)c2c(O)ccc(O)c2C1=O [ISOBUTYLALKANNIN]
- IC50 (HCT-116): 0.3 µM
- IC50 (HepG2): 0.42 µM
